Experimental data reported in patent US20260225997A1, “IONIZABLE AMINE LIPIDS” (Intellia Therapeutics, Inc., priority 2018, published 2026).
Read-outs that look alike come from different tables or passages of the source.

What was measured:
[1] = pKa measurement of unformulated amine lipid (fluorescence, method of Jayaraman et al.); assay type: physicochemical; settings: 100 μM in 0.1 M phosphate buffer pH 4.5-9.0
Protocol: The pKa of each amine lipid was determined according to the method in Jayaraman, et al. (Angewandte Chemie, 2012) with the following adaptations. […] Lipid was diluted to 100 μM in 0.1 M phosphate buffer (Boston Bioproducts) where the pH ranged from 4.5-9.0. Fluorescence intensity was measured using excitation and emission wavelengths of 321 nm and 448 nm.

[2] = tested on: TTR; assay: Transthyretin (TTR) ELISA analysis of mouse serum after LNP dosing; assay type: in vivo; settings: for response vs control in vivo at 0.1 mg/kg / inhibition in vivo at 0.03 mg/kg: Mus musculus, iv; for response vs control in vivo at 0.1 mg/kg: 144 h, read-out: Serum TTR % TSS; for inhibition in vivo at 0.03 mg/kg: 168 h, read-out: Serum TTR (% KD)
Method in brief: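 Female CD-1 mice aged 6-10 weeks were grouped by body weight and given LNPs by lateral tail vein injection (0.2 mL per animal, about 10 mL per kilogram). Mice were bled by cardiac puncture under isoflurane into serum separator tubes. Serum was diluted 10,000-fold for the 0.1 mpk dose, and total TTR was quantified with a Mouse Prealbumin (Transthyretin) ELISA Kit following the kit directions.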

[3] = LNP average particle size and polydispersity by dynamic light scattering (Malvern Zetasizer); assay type: physicochemical
Text: The LNPs have a size of about 1 to about 1,000 nm, about 10 to about 500 nm, about 20 to about 500 nm, in a sub-embodiment about 50 to about 400 nm, in a sub-embodiment about 50 to about 300 nm, in a sub-embodiment about 50 to about 200 nm, and in a sub-embodiment about 50 to about 150 nm, and in another sub-embodiment about 60 to about 120 nm. Preferably, the LNPs have a size from about 60 nm to about 100 nm. The average sizes (diameters) of the fully formed LNP, may be measured by dynamic light scattering on a Malvern Zetasizer. The LNP sample is diluted in phosphate buffered saline (PBS) so that the count rate is approximately 200-400 kcps. The data is presented as a weighted average of the intensity measure.
The LNPs disclosed herein have a size (e.g. Z-average diameter) of about 1 to about 250 nm. In some embodiments, the LNPs have a size of about 10 to about 200 nm. In further embodiments, the LNPs have a size of about 20 to about 150 nm. In some embodiments, the LNPs have a size of about 50 to about 150 nm. In some embodiments, the LNPs have a size of about 50 to about 100 nm. In some embodiments, the LNPs have a size of about 50 to about 120 nm. In some embodiments, the LNPs have a size of about 60 to about 100 nm. In some embodiments, the LNPs have a size of about 75 to about 150 nm. In some embodiments, the LNPs have a size of about 75 to about 120 nm. In some embodiments, the LNPs have a size of about 75 to about 100 nm. Unless indicated otherwise, all sizes referred to herein are the average sizes (diameters) of the fully formed nanoparticles, as measured by dynamic light scattering on a Malvern Zetasizer. The nanoparticle sample is diluted in phosphate buffered saline (PBS) so that the count rate is approximately 200-400 kcps. The data is presented as a weighted-average of the intensity measure (Z-average diameter).
Dynamic Light Scattering (“DLS”) is used to characterize the polydispersity index (“pdi”) and size of the LNPs of the present disclosure. DLS measures the scattering of light that results from subjecting a sample to a light source. PDI, as determined from DLS measurements, represents the distribution of particle size (around the mean particle size) in a population, with a perfectly uniform population having a PDI of zero.
LNP compositions are analyzed for average particle size, polydispersity index (pdi), total RNA content, encapsulation efficiency of RNA, and zeta potential. LNP compositions may be further characterized by lipid analysis, AF4-MALS, NTA, and/or cryo-EM. Average particle size and polydispersity are measured by dynamic light scattering (DLS) using a Malvern Zetasizer DLS instrument. LNP samples were diluted with PBS buffer prior to being measured by DLS. Z-average diameter which is an intensity-based measurement of average particle size was reported along with number average diameter and pdi. A Malvern Zetasizer instrument is also used to measure the zeta potential of the LNP. Samples are diluted 1:17 (50 μL into 800 μL) in 0.1×PBS, pH 7.4 prior to measurement.

[4] = RNA encapsulation efficiency of LNP (Ribogreen fluorescence assay); assay type: physicochemical; settings: N:P 6.0
Protocol: A fluorescence-based assay (Ribogreen®, ThermoFisher Scientific) is used to determine total RNA concentration and free RNA. Encapsulation efficiency is calculated as (Total RNA−Free RNA)/Total RNA. LNP samples are diluted appropriately with 1× TE buffer containing 0.2% Triton-X 100 to determine total RNA or 1× TE buffer to determine free RNA. Standard curves are prepared by utilizing the starting RNA solution used to make the compositions and diluted in 1× TE buffer+/−0.2% Triton-X 100. Diluted RiboGreen® dye (according to the manufacturer's instructions) is then added to each of the standards and samples and allowed to incubate for approximately 10 minutes at room temperature, in the absence of light. A SpectraMax M5 Microplate Reader (Molecular Devices) is used to read the samples with excitation, auto cutoff and emission wavelengths set to 488 nm, 515 nm, and 525 nm respectively. Total RNA and free RNA are determined from the appropriate standard curves.
Encapsulation efficiency is calculated as (Total RNA−Free RNA)/Total RNA. The same procedure may be used for determining the encapsulation efficiency of a DNA-based cargo component. For single-strand DNA Oligreen Dye may be used, and for double-strand DNA, Picogreen Dye.

[5] = tested on: TTR; assay: TTR editing in mouse liver by NGS after i.v. LNP delivery of Cas9 mRNA and sgRNA; assay type: in vivo; settings: CD-1 female mice
Method in brief: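 Cas9 mRNA and chemically modified sgRNA were co-formulated in LNPs made of an ionizable amine lipid, DSPC, cholesterol and PEG-2k-DMG at a 6.0 N:P ratio. CD-1 female mice aged 6-10 weeks received tail-vein injections of 0.2 mL. Liver genomic DNA was then amplified around the target site and sequenced on an Illumina MiSeq, with editing calculated as indel-containing reads over total reads.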

[6] = Example 58: 0.1 mpk i.v., 6 days post-dose, G282 1:1
[7] = Table 14, Example 58: LNP, G282 1:1
[8] = Table 14, Example 58: LNP, G282 (TTR) 1:1 w/w
[9] = Example 64: Dose 0.03 mpk (table) i.v., 7 days post-dose, G282 1:1
[10] = Table 26, Example 64: LNP, G282 1:1
[11] = Table 26, Example 64: LNP, G282 (TTR) 1:1 w/w
[12] = Example 60: 0.1 mpk i.v., 6 days post-dose, G502 1:2
[13] = Table 18, Example 60: LNP, G502 1:2

Row | SMILES | pKa [1] | Serum TTR [2, 6] | response vs control in vivo at 0.1 mg/kg [2, 6] | Num Ave Size (nm) [3, 7] | PDI [3, 7] | Z-Ave Size (nm) [3, 7] | Encapsulation (%) [4, 8] | Editing Mean % Indel [5, 6] | Serum TTR [2, 9] | inhibition in vivo at 0.03 mg/kg [2, 9] | Num Ave Size (nm) [3, 10] | PDI [3, 10] | Z-Ave Size (nm) [3, 10] | Encapsulation (%) [4, 11] | Editing Mean % Indel [5, 9] | further results
1 | CCCCCCCCOC(CCCCCCCN(CCO)CCCCCCCCCC(=O)OCCCCCCC)OCCCCCCCC [Compound 11, heptyl 10-((8,8-bis(octyloxy)octyl)(2-hydroxyethyl)amino)decanoate] | 6.35 | 553 µg/mL | 56% | 54.58 nm | 0.137 | 89.3 nm | 86% | 29.4% | – | – | – | – | – | – | – | –
2 | CCCCCCCCCOC(=O)CCCCCCCN(CCCCCCC(OCCCCCCCC)OCCCCCCCC)CCCNC(=O)OC [Compound 43, nonyl 8-((7,7-bis(octyloxy)heptyl)(3-((methoxycarbonyl)amino)propyl)amino)octanoate] | 6.02 | – | – | – | – | – | – | – | 619.2 µg/mL | -8.1% | 56 nm | 0.05 | 74 nm | 94% | 8.6% | –
3 | CCCCCCCCCOC(=O)CCCCCCCN(CCCCCCC(OCCCCCCCC)OCCCCCCCC)CCNC(=O)OC [Compound 44, nonyl 8-((7,7-bis(octyloxy)heptyl)(2-((methoxycarbonyl)amino)ethyl)amino)octanoate] | 5.62 | – | – | – | – | – | – | – | 603.9 µg/mL | -5.5% | 92 nm | 0.25 | 185 nm | 59% | 7.9% | –
4 | CCCCCCCCCCCOC(=O)CCCCCN(CCO)CCCCCCCC(OCCCCCCCC)OCCCCCCCC [Compound 13, undecyl 6-((8,8-bis(octyloxy)octyl)(2-hydroxyethyl)amino)hexanoate] | 6.35 | 703 µg/mL | 71% | 63.34 nm | 0.04 | 77.34 nm | 98% | 22.6% | – | – | – | – | – | – | – | –
5 | CCCCCCCCCCC(=O)OCCCCCCN(CCO)CCCCCCCC(OCCCCCCCC)OCCCCCCCC [Compound 22, 6-((8,8-bis(octyloxy)octyl)(2-hydroxyethyl)amino)hexyl undecanoate] | 6.18 | – | – | – | – | – | – | – | – | – | – | – | – | – | – | Serum TTR [2, 12]: 410 µg/mL; response vs control in vivo at 0.1 mg/kg [2, 12]: 29%; Num Ave Size (nm) [3, 13]: 66.68 nm; PDI [3, 13]: 0.029; Z-Ave Size (nm) [3, 13]: 82.91 nm; Encapsulation (%) ([4]; Table 18, Example 60: LNP, G502 (TTR), sgRNA:Cas9 mRNA 1:2 w/w): 98%; Editing Mean % Indel [5, 12]: 45.6%
